Consider 6 compounds from patent EP0000693A1, “Aminophenoxymethyl-2-morpholine derivatives, the preparation thereof and pharmaceuticals containing them” (Dr. Karl Thomae GmbH, priority 1977, dated 1979).

Structures are written as SMILES. Where a name gives a salt, the structure may show the parent alone. Read-outs that look alike come from different tables or passages of the source.

The subject of assay [1] is Muskelrelax. + Sedierung Maus. Kind of assay: Muscle relaxation and sedation (Versuch 3). Format: in vivo. As to conditions: mouse; method text not readable (image).
Assay [2] relates to durch Reserpin hervorgerufene Hypothermie bei Mäusen. Kind of assay: Antidepressant effect: antagonism of reserpine-induced hypothermia (Versuch 1). The class given is in vivo, Maus. As to conditions: 40 mg/kg p.o., 17 h after 3 mg/kg Reserpin s.c.; maximal re-rise of body temperature versus controls, measured 1 - 4 h after dosing; * = significant versus controls, p ≤ 0,05. The source says: (§1) Beispielsweise wurden die Verbindungen • A = 2-(2-Amino-3,5-dibrom-phenoxy-methylen)-morpholin-hydrochlorid, • B = 2-(4-Amino-3,5-dibrom-phenoxy-methylen)-4-isopropyl-morpholin- hydrochlorid, • C = 2-(4-Amino-3,5-dibrom-phenoxy-methylen)-morpholin-hydrochlorid, • D = 2-(2-Amino-3,5-dibrom-phenoxy-methylen)-4-tert.butyl-morpholin-hydrochlorid und • E = 2-(2-Amino-5-brom-4-chlor-phenoxy-methylen)-4-isopronyl- morpholin-dihydrochlorid ,im Vergleich zu • F = 2-(2-Äthoxy-phenoxy-methylen)-morpholin-hydrochlorid auf ihre biologischen Wirkungen wie folgt untersucht: • 1. […] Bei 20 - 26 g schweren männlichen Mäusen wurde durch 3 mg/kg Reserpin s.c. Hypothermie erzeugt. 17 Stunden später wurde die Körpertemperatur mittels eines elektrischen Schlundsondenthermometers gemessen. Anschließend wurden Gruppen von 6 - 10 Tieren die zu prüfenden Substanzen in der Dosis von 40 mg/kg p.o. verabreicht. Kontrollgruppen erhielten das Lösungsmittel (Aqua dest.). Die Körpertemperaturen wurden 1 - 4 Stunden nach Substanzverabreichung in stündlichem Abstand gemessen. Zur Auswertung wurden der maximale Wiederanstieg der Körpertemperatur der Substanzgruppe mit den Temperaturen der Kontrolltiergruppen verglichen und die Temperaturunterschiede mit dem MANN-WHITNEY-U-Test auf Signifikanz geprüft. • 2. […] Dazu wurde bei 10 männlichen, 20-26 g schweren Mäusen ein Krampfzustand mit Wechselstrom (50 mA, 50 Hz, 0,2 sec Dauer) über mit physiologischer : Kochsalz-Lösung angefeuchtete, an den Kopf der Tiere gelegte Metallelektroden erzeugt, wobei das Ausbleiben der tonischen Extensorkomponente dieses Krampfes 150 Minuten nach Substanzgabe als antikonvulsive Wirkung gewertet wurde.

The test system of assay [3] is maximalen Elektrokrampf bei Mäusen. Kind of assay: Anticonvulsant effect: maximal electroshock seizure (Versuch 2). The class given is in vivo, Maus. As to conditions: Mus musculus, 2.5 h.
Excerpt: as §1

Where [4] appears, read: male mice, 50 mA, 50 Hz, 0,2 sec, absence of tonic extensor component 150 min after dosing, ED50 by LITCHFIELD and WILCOXON, read-out: Versuch 2 Elektrokrampf Maus ED50-Hemmung.

With `Nc1c(Br)cc(Br)cc1OCC1CNCCO1` (stereo not drawn) [A, 2-(2-Amino-3,5-dibrom-phenoxy-methylen)-morpholin-hydrochlorid], the ED50 was > 200 mg/kg in assay [1] and 26.5 mg/kg in assay [3] (setting [4]). In addition, the “Versuch 1 Reserpin Maus 40 mg/kg: +°C” value in assay [2] is 10,7* °C.
The matching figures for `CC(C)N1CCOC(COc2cc(Br)c(N)c(Br)c2)C1` (stereo not drawn) [B, 2-(4-Amino-3,5-dibrom-phenoxy-methylen)-4-isopropyl-morpholin-hydrochlorid]: 60 mg/kg, 26 mg/kg and 8,4* °C.
The matching figures for `Nc1c(Br)cc(OCC2CNCCO2)cc1Br` (stereo not drawn) [C, 2-(4-Amino-3,5-dibrom-phenoxy-methylen)-morpholin-hydrochlorid]: 21 mg/kg, 17.5 mg/kg and 7,3* °C.
For `CC(C)(C)N1CCOC(COc2cc(Br)cc(Br)c2N)C1` (stereo not drawn) [D, 2-(2-Amino-3,5-dibrom-phenoxy-methylen)-4-tert.butyl-morpholin-hydrochlorid], the values for the ED50 in assay [1] and in assay [3] (setting [4]) were > 200 mg/kg and 150 mg/kg, respectively. Further, in assay [2], the “Versuch 1 Reserpin Maus 40 mg/kg: +°C” value is 0,6 °C.
Take `CC(C)N1CCOC(COc2cc(Br)c(Cl)cc2N)C1` (stereo not drawn) [E, 2-(2-Amino-5-brom-4-chlor-phenoxy-methylen)-4-isopronyl-morpholin-dihydrochlorid]: the ED50 is > 200 mg/kg in assay [1] and 200 mg/kg in assay [3] (setting [4]). For the same compound, in assay [2], the “Versuch 1 Reserpin Maus 40 mg/kg: +°C” value was 1,0 °C.
Regarding `CCOc1ccccc1OCC1CNCCO1` (stereo not drawn) [F, 2-(2-Äthoxy-phenoxy-methylen)-morpholin-hydrochlorid, reference compound], the ED50 in assay [1] was ~200 mg/kg; in assay [3] (read-out: Versuch 2 Elektrokrampf Maus ED50-Hemmung mg/kg), 42 mg/kg. For the same compound, the “Versuch 1 Reserpin Maus 40 mg/kg: +°C” value in assay [2] was 9,8* °C.
